Columns and labels:
[1] = system: pentagastrin-stimulated acid secretion of the perfused rat stomach; experiment: Secretion-inhibiting action on the perfused rat stomach (pentagastrin-stimulated acid secretion); type: in vivo; details: anesthetized CD rat, dose 3.0 μmol/kg i.d. (intraduodenal)
Text: Testing of the Secretion-Inhibiting Action on the Perfused Rat Stomach
In Table A which follows, the influence of the compounds of the formula 1 according to the invention on the pentagastrin-stimulated acid secretion of the perfused rat stomach after intraduodenal administration in vivo is shown.
The abdomen of anesthetized rats (CD rat, female, 200-250 g; 1.5 g/kg i.m. urethane) was opened after tracheotomy by a median upper abdominal incision and a PVC catheter was fixed transorally in the esophagus and another via the pylorus such that the ends of the tubes just projected into the gastric lumen. The catheter leading from the pylorus led outward into the right abdominal wall through a side opening.
After thorough rinsing (about 50-100 ml), warm (37° C.) physiological NaCl solution was continuously passed through the stomach (0.5 ml/min, pH 6.8-6.9; Braun-Unita I). The pH (pH meter 632, glass electrode EA 147; φ=5 mm, Metrohm) and, by titration with a freshly prepared 0.01N NaOH solution to pH 7 (Dosimat 665 Metrohm), the secreted HCl were determined in the effluent in each case collected at an interval of 15 minutes.
The gastric secretion was stimulated by continuous infusion of […] (=1.65 ml/h) of i.v. pentagastrin (left femoral vein) about 30 min after the end of the operation (i.e. after determination of 2 preliminary fractions). […]

Row | Compound | melting point [°C] | Inhibition of acid secretion [1] [%]
1 | Cc1nc2c3c(ccc2n1C)[C@H](O)C[C@H](c1ccccc1)O3 (relative stereo) [Example 1, cis-2,3-Dimethyl-8-phenyl-3,6,7,8-tetrahydro-chromeno[7,8-d]imidazol-6-ol] | 228 to 229 | –
2 | COCCOC1CC(c2ccccc2)Oc2c1ccc1c2nc(C)n1C (stereo not shown) [Example 2, 6-(2-Methoxy-ethoxy)-2,3-dimethyl-8-phenyl-3,6,7,8-tetrahydro-chromeno[7,8-d]imidazole] | 148 to 149 | >50
3 | CCOC1CC(c2ccccc2)Oc2c1ccc1c2nc(C)n1C (stereo not shown) [Example 3, 6-(2-Ethoxy)-2,3-dimethyl-8-phenyl-3,6,7,8-tetrahydro-chromeno[7,8-d]imidazole] | 177 to 178 | –

Source: patent US20080113962A1, “Condensed Tricyclic Benzimidazoles For the Treatment of Gastrointestinal Disorders” (Aitana Pharma AG, priority 2004, published 2008)
